# Reference: patent US8318807B2 (Laurus Labs Private Limited, priority 2010, dated 2012)
# What was measured:
# [1] = Procedure: Solubility and concentration measurements were performed using ultraviolet (UV) spectroscopy on a Spectramax Microplate Reader.
# Appropriate dilutions with water were made as necessary to maintain absorbance readings within the standard curve. All experiments were repeated three times to evaluate the standard deviation, while particle size was not controlled for any of the experiments.
# [2] = Relative humidity stability over saturated salt solutions at ambient temperature, analysed by XRPD; type: physicochemical; conditions: for Dissociation by XRPD: 75, 94, or 98% RH after four weeks
# Procedure: Relative humidity (RH) conditions were created at ambient temperatures using saturated salt solutions: NaCl ˜75%, KNO3 ˜94%, and K2SO4 ˜98%. Vials of each sample containing approximately 10 mg, were subjected to physical stability at ˜75% RH, ˜94% RH, and ˜98% RH for one day, three days, one week, and four weeks within a closed chamber. […] Upon completion of the duration allowed, the samples were immediately analyzed by XRPD.
# [3] = Physical stability upon slurrying in water; type: physicochemical; conditions: for Behaviour upon slurrying in water: three days
# Text: […]. […] […]. […]
# [4] = Powder dissolution of cocrystal 4 (attempted for cocrystal 3): slurry in water at ambient, UV at 315 nm; type: physicochemical
# [5] = Physical stability at elevated temperature and/or relative humidity, analysed by XRPD; type: physicochemical
# Procedure: Physical stability was evaluated at approximately 40° C., 60° C., 25° C./75% RH, 25° C./98% RH, and 40° C./75% RH and XRPD was used to detect dissociation or form conversion. Vials of each cocrystal were subjected to each condition for durations of two weeks, one month, and two months. Upon completion of the duration allowed, the samples were immediately analyzed by XRPD.
# [6] = Attempted intrinsic dissolution in 900 mL water at ambient conditions; type: physicochemical; conditions: after 30 minutes
# Procedure: Intrinsic dissolution in 900 mL water at ambient conditions was also attempted. […] Therefore, a concentration vs. time and intrinsic dissolution rate value were unobtainable at these conditions.
# cancer cell lines = cancer cell lines in vitro; cited from earlier work
Compound,"Results (XRPD) ([2]; 75% RH, 1 week)","Results (XRPD) ([2]; 75% RH, 4 weeks)","Results (XRPD) ([2]; 75% RH, 1 day)","Results (XRPD) ([2]; 75% RH, 3 days)","Results (XRPD) ([2]; 94% RH, 1 week (7 days))","Results (XRPD) ([2]; 94% RH, 4 weeks)","Results (XRPD) ([2]; 94% RH, 1 day)","Results (XRPD) ([2]; 94% RH, 3 days)","Results (XRPD) ([2]; 98% RH, 1 week)","Results (XRPD) ([2]; 98% RH, 4 weeks)","Results (XRPD) ([2]; 98% RH, 1 day)","Results (XRPD) ([2]; 98% RH, 3 days)",Behaviour upon slurrying in water [3],Dissociation by XRPD [2],other results
pterostilbene:carbamazepine [cocrystal 2],"cocrystal 2, no carbamazepine dihydrate","cocrystal 2, no carbamazepine dihydrate","cocrystal 2, no carbamazepine dihydrate","cocrystal 2, no carbamazepine dihydrate","cocrystal 2, no carbamazepine dihydrate","cocrystal 2, no carbamazepine dihydrate","cocrystal 2, no carbamazepine dihydrate","cocrystal 2, no carbamazepine dihydrate","cocrystal 2, no carbamazepine dihydrate","cocrystal 2, no carbamazepine dihydrate","cocrystal 2, no carbamazepine dihydrate","cocrystal 2, no carbamazepine dihydrate",stable,–,Solubility (±standard deviation) [1]: 8.5 ± 0.7 µg/mL
pterostilbene:glutaric acid [cocrystal 3],–,–,–,–,–,–,–,–,–,–,–,–,–,no dissociation,"Solubility relative to pterostilbene ([4]; concluded from crystalline pterostilbene being the only product after slurrying in water): greater than the solubility of pterostilbene; XRPD result after slurrying in water ([4]; water at ambient, after 5 minutes): crystalline pterostilbene; Results (by XRPD) ([5]; 25° C./75% RH, 2 weeks): cocrystal 3; Results (by XRPD) ([5]; 25° C./75% RH, 4 weeks): cocrystal 3; Results (by XRPD) ([5]; 25° C./75% RH, 8 weeks): cocrystal 3; Results (by XRPD) ([5]; 25° C./98% RH, 2 weeks): cocrystal 3; Results (by XRPD) ([5]; 25° C./98% RH, 4 weeks): cocrystal 3; Results (by XRPD) ([5]; 25° C./98% RH, 8 weeks): cocrystal 3; Results (by XRPD) ([5]; 40° C., 2 weeks): cocrystal 3; Results (by XRPD) ([5]; 40° C., 4 weeks): cocrystal 3; Results (by XRPD) ([5]; 40° C., 8 weeks): cocrystal 3; Results (by XRPD) ([5]; 40° C./75% RH, 2 weeks): cocrystal 3; Results (by XRPD) ([5]; 40° C./75% RH, 4 weeks): cocrystal 3; Results (by XRPD) ([5]; 40° C./75% RH, 8 weeks): cocrystal 3; Results (by XRPD) ([5]; 60° C., 2 weeks): cocrystal 3; Results (by XRPD) ([5]; 60° C., 4 weeks): cocrystal 3; Results (by XRPD) ([5]; 60° C., 8 weeks): cocrystal 3; XRPD result in intrinsic dissolution [6]: crystalline pterostilbene"
Cn1c(=O)c2c(ncn2C)n(C)c1=O [caffeine],caffeine anhydrous,caffeine anhydrous,caffeine anhydrous,caffeine anhydrous,caffeine hydrate,caffeine hydrate,caffeine anhydrous,caffeine anhydrous/caffeine hydrate,caffeine hydrate,caffeine hydrate,caffeine hydrate,caffeine hydrate,–,–,"Conversion to hydrate ([2]; 75% RH, up to four weeks): does not display signs of conversion; Time of partial conversion to hydrate/dihydrate ([2]; 94% RH): between one and three days; Time of (full) conversion to hydrate/dihydrate ([2]; 98% RH): less than one day"
"COc1cc(/C=C/c2ccc(O)cc2)cc(OC)c1.Cn1c(=O)c2c(ncn2C)n(C)c1=O [cocrystal 1 (Form I), pterostilbene:caffeine]","cocrystal 1 (Form I), no caffeine hydrate","cocrystal 1 (Form I), no caffeine hydrate","cocrystal 1 (Form I), no caffeine hydrate","cocrystal 1 (Form I), no caffeine hydrate","cocrystal 1 (Form I), no caffeine hydrate","cocrystal 1 (Form I), no caffeine hydrate","cocrystal 1 (Form I), no caffeine hydrate","cocrystal 1 (Form I), no caffeine hydrate",–,–,–,–,precipitation of pterostilbene,–,"Results (XRPD) ([2]; 75% RH, 1 week, then additional stress at 98% RH, 1 week): cocrystal 1 (Form I), no caffeine hydrate; Results (XRPD) ([2]; 75% RH, 1 day, then additional stress at 98% RH, 1 day): cocrystal 1 (Form I), no caffeine hydrate; Results (XRPD) ([2]; 94% RH, 7 days, then additional stress at 98% RH, 4 weeks): cocrystal 1 (Form I), no caffeine hydrate; Results (XRPD) ([3]; Table 19, slurry, 2 days): cocrystal 1 (Form I), no caffeine hydrate"
"COc1cc(/C=C/c2ccc(O)cc2)cc(OC)c1.Cn1c(=O)c2c(ncn2C)n(C)c1=O [cocrystal 1, pterostilbene:caffeine]",–,–,–,–,–,–,–,–,–,–,–,–,–,no dissociation,–
"COc1cc(/C=C/c2ccc(O)cc2)cc(OC)c1 [pterostilbene, trans-3,5-dimethoxy-4′-hydroxystilbene]",–,pterostilbene (Form I),–,–,–,pterostilbene (Form I),–,–,–,pterostilbene (Form I),–,–,–,–,Cytotoxic activity (cancer cell lines): cytotoxic activity
